The assay has as its target SARS-COV-2 3CLpro/Mpro protease (Severe acute respiratory syndrome coronavirus 2 (2019-nCoV) (SARS-CoV-2), UniProt P0DTD1). Briefly: Inhibitory effect on SARS-COV-2 3CLpro/Mpro protease by fluorescence resonance energy transfer. Type of assay: biochemical. As to conditions: activity intervals A-D, read-out: IC50 (nM), Inhibition on SARS-CoV-2 3CLpro/Mpro protease.

For `CNc1cncc(C(=O)N2C[C@H](Nc3c(C(=O)N4C[C@@H](C)O[C@@H](C)C4)cc(Br)cc3[N+](=O)[O-])C[C@H]2C(=O)N[C@H]2CC[C@@H](OC)C2)c1` [Example 434, (2S,4R)-4-((4-bromo-2-((2R,6S)-2,6-dimethylmorpholin-4-carbonyl)-6-nitrophenyl)amino)-N-((1S,3R)-3-methoxycyclopentyl)-1-(5-(methylamino)nicotinoyl) pyrrolidine-2-formamide], the IC50 fell in the range of 100 to 200 nM.

For the molecule `CNc1cncc(C(=O)N2C[C@H](Nc3c(C(=O)N4C[C@@H](C)O[C@@H](C)C4)cc(Br)cc3[N+](=O)[O-])C[C@H]2C(=O)Nc2ccc3c(cnn3C)c2Cl)c1` [Example 435], the IC50 is 50 to 100 nM.

In the case of `CNc1cncc(C(=O)N2C[C@H](Nc3c(C(=O)N4C[C@@H](C)O[C@@H](C)C4)cc(Br)cc3[N+](=O)[O-])C[C@H]2C(=O)Nc2cc(C(F)(F)F)ncn2)c1` [Example 436, (2S,4R)-4-((4-bromo-2-((2R,6S)-2,6-dimethylmorpholin-4-carbonyl)-6-nitrophenyl)amino)-1-(5-(methylamino)nicotinoyl)-N-(6-(trifluoromethyl)pyrimidin-4-yl) pyrrolidine-2-formamide], the IC50 is 50 to 100 nM.

Turning to `CNc1cncc(C(=O)N2C[C@H](Nc3c(C(=O)N4C[C@@H](C)O[C@@H](C)C4)cc(Br)cc3[N+](=O)[O-])C[C@H]2C(=O)N[C@H]2CC(=O)N(C)C2)c1` [Example 437], the IC50 lay within 50 to 100 nM.

As for `CNc1cncc(C(=O)N2C[C@H](Nc3c(C(=O)N4C[C@@H](C)O[C@@H](C)C4)cc(Br)cc3[N+](=O)[O-])C[C@H]2C(=O)Nc2nn(C3C[C@@H](C)O[C@@H](C)C3)cc2Br)c1` (stereo partly shown) [Example 438], the IC50 lay in the range of 10 to 50 nM.

Take `CO[C@H]1CN(C(=O)c2cncc3[nH]nc(C)c23)C[C@@H]1Nc1c(C(=O)N2C[C@@H](C)O[C@@H](C)C2)cc(Br)cc1[N+](=O)[O-]` [Example 439, (5-Bromo-2-(((3S,4S)-4-methoxy-1-(3-methyl-1H-pyrazolo[3,4-c]pyridin-4-carbonyl)pyrrolidin-3-yl)amino)-3-nitrophenyl)((2S,6R)-2,6-dimethylmorpholinyl)methanone]: the IC50 lay within 10 to 50 nM.

In the case of `CNc1cncc(C(=O)N2C[C@H](Nc3c(-c4nnn(C)n4)cc(Br)cc3[N+](=O)[O-])[C@@H](OC)C2)c1` [Example 440, ((3S,4S)-3-((4-bromo-2-(2-methyl-2H-tetrazol-5-yl)-6-nitrophenyl)amino)-4-methoxypyrrolidin-1-yl)(5-(methylamino)pyridin-3-yl)methanone], the IC50 was 50 to 100 nM.

Regarding `CNc1cncc(C(=O)N2C[C@H](Nc3c(C(=O)N4C[C@@H](C)O[C@@H](C)C4)cc(Br)cc3[N+](=O)[O-])C[C@H]2C(=O)Nc2cc(Cl)ncn2)c1` [Example 441, (2S,4R)-4-((4-bromo-2-((2R,6S)-2,6-dimethylmorpholin-4-carbonyl)-6-nitrophenyl)amino)-N-(6-chloropyrimidin-4-yl)-1-(5-(methylamino)nicotinoyl) pyrrolidine-2-formamide], the IC50 is 10 to 50 nM.

For `CNc1cncc(C(=O)N2C[C@H](Nc3c(C(=O)N4C[C@@H](C)O[C@@H](C)C4)cc(Br)cc3[N+](=O)[O-])C[C@H]2C(=O)Nc2ccnc(Cl)n2)c1` [Example 442, (2S,4R)-4-((4-bromo-2-((2R,6S)-2,6-dimethylmorpholin-4-carbonyl)-6-nitrophenyl)amino)-N-(2-chloropyrimidin-4-yl)-1-(5-(methylamino)nicotinoyl) pyrrolidine-2-formamide], the IC50 is 10 to 50 nM.

As to `[2H]C([2H])([2H])Nc1cncc(C(=O)N2C[C@H](Nc3c(C(=O)N4C[C@@H](C)O[C@@H](C)C4)cc(Br)cc3[N+](=O)[O-])[C@@H](OC)C2)c1` [Example 443], the IC50 fell in the range of 10 to 50 nM.

`CO[C@H]1CN(C(=O)c2cncc3[nH]nc(Cl)c23)C[C@@H]1Nc1c(C(=O)N2C[C@@H](C)O[C@@H](C)C2)cc(Br)cc1[N+](=O)[O-]` [Example 444, (5-Bromo-2-(((3S,4S)-1-(3-chloro-1H-pyrazolo[3,4-c]pyridin-4-carbonyl)-4-methoxypyrrolidin-3-yl)amino)-3-nitrophenyl)((2S,6R)-2,6-dimethylmorpholinyl)methanone]: the IC50 lay in the range of 10 to 50 nM.

Regarding `CNc1cncc(C(=O)N2C[C@H](Nc3c(C(=O)N4C[C@@H](C)O[C@@H](C)C4)cc(Br)cc3[N+](=O)[O-])C[C@H]2C(=O)Nc2ncc(Br)cn2)c1` [Example 445, (2S,4R)-4-((4-bromo-2-((2R,6S)-2,6-dimethylmorpholin-4-carbonyl)-6-nitrophenyl)amino)-N-(5-bromopyrimidin-2-yl)-1-(5-(methylamino)nicotinoyl) pyrrolidine-2-formamide], the IC50 lay in the range of 50 to 100 nM.

Turning to `CNc1cncc(C(=O)N2C[C@H](Nc3c(C(=O)N4C[C@@H](C)O[C@@H](C)C4)cc(Br)cc3[N+](=O)[O-])C[C@@H](OCCOC)C2)c1` [Example 446], the IC50 was in the range of 10 to 50 nM.

As for `CNc1cncc(C(=O)N2C[C@H](Nc3c(C(=O)N4C[C@@H](C)O[C@@H](C)C4)cc(Br)cc3[N+](=O)[O-])C[C@H]2COC)c1` [Example 447], the IC50 lay in the range of 50 to 100 nM.

`CNc1cncc(C(=O)N2C[C@H](Nc3c(C(=O)N4C[C@@H](C)O[C@@H](C)C4)cc(Br)cc3[N+](=O)[O-])C[C@@H](O[C@@H]3CCOC3)C2)c1` [Example 448]: the IC50 lay in the range of 10 to 50 nM.

Turning to `CO[C@H]1CN(C(=O)c2cncc3[nH]c(C)nc23)C[C@@H]1Nc1c(C(=O)N2C[C@@H](C)O[C@@H](C)C2)cc(Br)cc1[N+](=O)[O-]` [Example 449, (5-Bromo-2-(((3S,4S)-4-methoxy-1-(2-methyl-3H-imidazol[4,5-c]pyridin-7-carbonyl)pyrrolidin-3-yl)amino)-3-nitrophenyl)((2S,6R)-2,6-dimethylmorpholinyl)methanone], the IC50 was in the range of 50 to 100 nM.

Regarding `CNc1cncc(C(=O)N2C[C@H](Nc3c(C(=O)N4C[C@@H](C)O[C@@H](C)C4)cc(Br)cc3[N+](=O)[O-])C[C@H]2C(=O)NCc2ccnc(C(F)(F)F)n2)c1` [Example 450, (2S,4R)-4-((4-bromo-2-((2R,6S)-2,6-dimethylmorpholin-4-carbonyl)-6-nitrophenyl)amino)-1-(5-(methylamino)nicotinoyl)-N-((2-(trifluoromethyl)pyrimidin-4-yl)methyl) pyrrolidine-2-formamide], the IC50 was in the range of 10 to 50 nM.

For `[2H]C([2H])([2H])Nc1cncc(C(=O)N2C[C@H](Nc3c(C(=O)N4C[C@@H](C)O[C@@H](C)C4)cc(Br)cc3[N+](=O)[O-])[C@@H](OC([2H])([2H])[2H])C2)c1` [Example 451], the IC50 was 10 to 50 nM.

`CNc1cncc(C(=O)N2C[C@H](Nc3c(C(=O)N4C[C@@H](C)O[C@@H](C)C4)cc(Br)cc3[N+](=O)[O-])C[C@@H](O[C@H]3CCOC3)C2)c1` [Example 452, (5-Bromo-2-(((3R,5R)-1-(5-(methylamino)nicotinoyl)-5-((S)-tetrahydrofuran-3-yl)oxy)piperidin-3-amino)-3-nitrophenyl)((2S,6R)-2,6-dimethylmorpholinyl)methanone]: the IC50 was in the range of 50 to 100 nM.

Consider `CO[C@H]1CN(C(=O)c2cncc3[nH]nnc23)C[C@@H]1Nc1c(C(=O)N2C[C@@H](C)O[C@@H](C)C2)cc(Br)cc1[N+](=O)[O-]` [Example 454, (5-Bromo-2-(((3S,4S)-4-methoxy-1-(2-methyl-3H-1,2,3-triazole[4,5-c]pyridin-7-carbonyl)pyrrolidin-3-yl)amino)-3-nitrophenyl)((2S,6R)-2,6-dimethylmorpholinyl)methanone], for which the IC50 was in the range of 10 to 50 nM.

`CNc1cncc(C(=O)N2C[C@H](Nc3c(C(=O)N4C[C@@H](C)O[C@@H](C)C4)cc(Br)cc3[N+](=O)[O-])[C@@H](OCc3ccccc3)C2)c1` [Example 455]: the IC50 is 10 to 50 nM.

In the case of `CNc1cncc(C(=O)N2C[C@H](Nc3c(C(=O)N4C[C@@H](C)O[C@@H](C)C4)cc(Br)cc3[N+](=O)[O-])[C@@H](OCc3ccc(OC)nc3)C2)c1` [Example 456, (5-Bromo-2-(((3S,4S)-4-((6-methoxypyridin-3-yl)methoxy)-1-(5-methylamino)nicotinoyl)pyrrolidin-3-amino)-3-nitrophenyl)((2S,6R)-2,6-dimethylmorpholinyl)methanone], the IC50 was 10 to 50 nM.

On to `CNc1cncc(C(=O)N2C[C@H](Nc3c(C(=O)N4C[C@@H](C)O[C@@H](C)C4)cc(Br)cc3[N+](=O)[O-])[C@@H](OCc3ccc(C(F)(F)F)nc3)C2)c1` [Example 457, (5-Bromo-2-((3S,4S)-1-(5-(methylamino)nicotinoyl)-4-((6-(trifluoromethyl)pyridin-3-yl)methoxy)pyrrolidin-3-amino)-3-nitrophenyl)((2S,6R)-2,6-dimethylmorpholinyl)methanone], for which the IC50 is 100 to 200 nM.

Consider `CNc1cncc(C(=O)N2C[C@H](Nc3c(C(=O)N4C[C@@H](C)O[C@@H](C)C4)cc(Br)cc3[N+](=O)[O-])[C@@H](OCc3ccccn3)C2)c1` [Example 458], for which the IC50 fell in the range of 10 to 50 nM.

As for `CNc1cncc(C(=O)N2C[C@H](Nc3c(C(=O)N4C[C@@H](C)O[C@@H](C)C4)cc(Br)cc3[N+](=O)[O-])[C@@H](OCc3ccc(F)cn3)C2)c1` [Example 459], the IC50 is 10 to 50 nM.

As to `CNc1cncc(C(=O)N2C[C@H](Nc3c(C(=O)N4C[C@@H](C)O[C@@H](C)C4)cc(Br)cc3[N+](=O)[O-])[C@@H](OCc3ncco3)C2)c1` [Example 460], the IC50 was 10 to 50 nM.

For `CNc1cncc(C(=O)N2C[C@H](Nc3c(C(=O)N4C[C@@H](C)O[C@@H](C)C4)cc(Br)cc3[N+](=O)[O-])[C@@H](OCc3nccs3)C2)c1` [Example 461], the IC50 lay within 10 to 50 nM.

Take `CNc1cncc(C(=O)N2C[C@H](Nc3c(C(=O)N4C[C@@H](C)O[C@@H](C)C4)cc(Br)cc3[N+](=O)[O-])[C@@H](OCc3cncn3C)C2)c1` [Example 462, (5-Bromo-2-(((3S,4S)-4-((1-methyl-1H-imidazol-5-yl)methoxy)-1-(5-(methylamino)nicotinoyl)pyrrolidin-3-yl)amino)-3-nitrophenyl)((2S,6R)-2,6-dimethylmorpholinyl)methanone]: the IC50 was 10 to 50 nM.

The values are drawn from patent US20250042889A1, “3CLPRO PROTEASE INHIBITOR” (SHANGHAI QILU PHARMACEUTICAL RESEARCH AND DEVELOPMENT …, priority 2021, published 2025).
